Experimental findings from US8158792B2, “Spiropiperidines for use as tryptase inhibitors” (Janssen Pharmaceutica N.V., priority 2007, dated 2012) are described below.

The assay concerns the target human lung tryptase. Kind of assay: β-Tryptase In-Vitro Enzyme Assay. The class given is biochemical. The conditions noted are these: human lung tryptase 1 nM, substrate H-D-HHT-Ala-Arg-pNa 500 μM, pH 7.4, room temperature. On the procedure:
The β-tryptase assay was conducted with human lung tryptase (Cortex Biochem #CP3033) in an aqueous buffer (10 mM Tris, 10 mM Hepes, 150 mM NaCl, 0.1% PEG 8000, pH 7.4) using the chromogenic substrate H-D-HHT-Ala-Arg-pNa. […] Percent inhibition was calculated by comparing the initial reaction velocity of samples without inhibitor to those with inhibitor. The initial reaction velocities were analyzed using Microsoft Excel.
Molecule `NCc1ccc2c(c1)C1(CCN(C(=O)c3cc4cc(C(F)(F)F)ccc4s3)CC1)CO2` [Cpd 200, 1-(5-trifluoromethyl-benzo[b]thien-2-yl)carbonyl-5′-aminomethyl-spiro[piperidine-4,3′-(2H)-benzo[b]furan]] registered an IC50 of 4100 nM.
`NCc1ccc2c(c1)C1(CCN(C(=O)Cc3ccc4c(c3)OCO4)CC1)CO2` [Cpd 100, 1-benzodioxol-5-ylmethylcarbonyl-5′-aminomethyl-spiro[piperidine-4,3′-(2H)-benzo[b]furan]] displayed an IC50 of 680 nM.
On to `CSc1sc(C(=O)N2CCC3(CC2)COc2ccc(CN)cc23)c2c1CCCC2` [Cpd 218, 1-(3-methylthio-5,6,7-trihydro-4H-benzo[c]thien-1-yl)carbonyl-5′-aminomethyl-spiro[piperidine-4,3′-(2H)-benzo[b]furan]], for which half-maximal inhibition (IC50) was put at 8 nM.
In turn, `NCc1ccc2c(c1)C1(CCN(C(=O)/C=C/c3cccc(O)c3)CC1)CO2` [Cpd 265, (E)-1-(3-hydroxy-phenylethenyl)carbonyl-5′-aminomethyl-spiro[piperidine-4,3′-(2H)-benzo[b]furan]] yielded an IC50 of 870 nM.
As to `CCCCSc1sc(C(=O)N2CCC3(CC2)COc2ccc(CN)cc23)c2c1C(=O)CCC2` [Cpd 229, 1-(3-butylthio-4-oxo-5,6,7-trihydro-4H-benzo[c]thien-1-yl)carbonyl-5′-aminomethyl-spiro[piperidine-4,3′-(2H)-benzo[b]furan]], the IC50 came to 5.3 nM.
To `NCc1ccc2c(c1)C1(CCN(C(=O)c3ccc(Cc4ccccc4)cc3)CC1)CO2` [Cpd 75, 1-(4-benzyl-phenyl)carbonyl-5′-aminomethyl-spiro[piperidine-4,3′-(2H)-benzo[b]furan]] belongs 470 nM.
In the case of `COc1cccc2c1OCC(C(=O)N1CCC3(CC1)COc1ccc(CN)cc13)=C2` [Cpd 197, 1-(8-methoxy-(2H)-chromen-3-yl)carbonyl-5′-aminomethyl-spiro[piperidine-4,3′-(2H)-benzo[b]furan]] it was 230 nM.
In the case of `COC(=O)CN1CC2(CCN(C(=O)c3ccc(C#Cc4ccccc4)o3)CC2)c2cc(CN)ccc21` [Cpd 343, 1-(5-phenylethynyl-furan-2-yl)carbonyl-1′-[(methoxycarbonyl)methyl]-5′-aminomethyl-spiro[piperidine-4,3′-(2H)-indole]], the IC50 was found to be 23 nM.
With `NCc1ccc2c(c1)C1(CCN(C(=O)c3ccc(C#Cc4ccccc4)o3)CC1)NC2=O` [Cpd 317, 1-(5-phenylethynyl-furan-2-yl)carbonyl-1′-oxo-5′-aminomethyl-spiro[piperidine-4,3′-1H-isoindole]], it took 7.3 nM to reach half-maximal inhibition (IC50).
In the case of `COc1cccc(/C=C/C(=O)N2CCC3(CC2)COc2ccc(CN)cc23)c1` [Cpd 184, (E)-1-(3-methoxy-phenylethenyl)carbonyl-5′-aminomethyl-spiro[piperidine-4,3′-(2H)-benzo[b]furan]], the IC50 was 210 nM.
To `Cc1nc(-c2cccnc2)sc1C(=O)N1CCC2(CC1)COc1ccc(CN)cc12` [Cpd 124, 1-(2-pyridin-3-yl-4-methyl-thiazol-5-yl)carbonyl-5′-aminomethyl-spiro[piperidine-4,3′-(2H)-benzo[b]furan]] belongs 1100 nM.
With `Cc1c(C#N)sc2sc(C(=O)N3CCC4(CC3)COc3ccc(CN)cc34)c(C)c12` [Cpd 226, 1-(3,4-dimethyl-5-cyano-thieno[2,3-b]thien-2-yl)carbonyl-5′-aminomethyl-spiro[piperidine-4,3′-(2H)-benzo[b]furan]], the IC50 worked out at 3200 nM.
In the case of `NCc1ccc2c(c1)C1(CCN(C(=O)c3ccc(C#Cc4ccccc4Cl)o3)CC1)CO2` [Cpd 146, 1-[5-(2-chloro-phenylethynyl)-furan-2-yl]carbonyl-5′-aminomethyl-spiro[piperidine-4,3′-(2H)-benzo[b]furan]], half-maximal inhibition (IC50) required 5.2 nM.
Turning to `Cc1nc(C)c(C(=O)N2CCC3(CC2)COc2ccc(CN)cc23)s1` [Cpd 118, 1-(2,4-dimethyl-thiazol-5-yl)carbonyl-5′-aminomethyl-spiro[piperidine-4,3′-(2H)-benzo[b]furan]], the IC50 stood at 110 nM.
Regarding `NCc1ccc2c(c1)C1(CCN(C(=O)c3cccc(NC(N)=S)c3)CC1)CO2` [Cpd 5, 1-(3-aminothiocarbonylamino-phenyl)carbonyl-5′-aminomethyl-spiro[piperidine-4,3′-(2H)-benzo[b]furan]], the IC50 is 450 nM.
The molecule `NCc1ccc2c(c1)C1(CCN(C(=O)c3ccc(-c4ccccn4)s3)CC1)CO2` [Cpd 120, 1-(5-pyridin-2-yl-thien-2-yl)carbonyl-5′-aminomethyl-spiro[piperidine-4,3′-(2H)-benzo[b]furan]] had an IC50 of 130 nM.
`NCc1ccc2c(c1)C1(CCN(C(=O)/C(F)=C/c3ccccc3)CC1)CO2` [Cpd 162, (Z)-1-(1-fluoro-2-phenylethenyl)carbonyl-5′-aminomethyl-spiro[piperidine-4,3′-(2H)-benzo[b]furan]] had an IC50 of 79 nM.
With `NCc1ccc2c(c1)C1(CCN(C(=O)/C=C/c3ccc(F)c(F)c3)CC1)CO2` [Cpd 111, (E)-1-(3,4-difluoro-phenylethenyl)carbonyl-5′-aminomethyl-spiro[piperidine-4,3′-(2H)-benzo[b]furan]], the IC50 worked out at 190 nM.
As to `NCc1ccc2c(c1)C1(CCN(C(=O)c3scc4c3CCCC4)CC1)CO2` [Cpd 203, 1-(5,6,7-trihydro-4H-benzo[c]thien-1-yl)carbonyl-5′-aminomethyl-spiro[piperidine-4,3′-(2H)-benzo[b]furan]], it took 280 nM to reach half-maximal inhibition (IC50).
With `C[N+](C)(C)Cc1ccc2c(c1)C1(CCN(C(=O)c3ccc(C#Cc4ccccc4)o3)CC1)CO2` [Cpd 297, 1-(5-phenylethynyl-furan-2-yl)carbonyl-spiro[piperidine-4,3′-(2H)-benzo[b]furan]-5′-[methyl-(trimethyl)ammonium]], inhibition was half-maximal at 9600 nM (IC50).
`Cn1nc(C(F)(F)F)cc1-c1ccc(C(=O)N2CCC3(CC2)COc2ccc(CN)cc23)s1` [Cpd 127, 1-[5-(1-methyl-3-trifluoromethyl-pyrazol-5-yl)-thien-2-yl]carbonyl-5′-aminomethyl-spiro[piperidine-4,3′-(2H)-benzo[b]furan]] registered an IC50 of 3700 nM.
`NCc1ccc2c(c1)C1(CCN(C(=O)c3ccc(CCl)cc3)CC1)CO2` [Cpd 69, 1-(4-chloromethyl-phenyl)carbonyl-5′-aminomethyl-spiro[piperidine-4,3′-(2H)-benzo[b]furan]]: half-maximal inhibition (IC50) required 1600 nM.
`NCc1ccc2c(c1)C1(CCN(C(=O)c3cccc(NS(=O)(=O)c4ccccc4)c3)CC1)CO2` [Cpd 18, 1-(3-phenylsulfonylamino-phenyl)carbonyl-5′-aminomethyl-spiro[piperidine-4,3′-(2H)-benzo[b]furan]] showed a concentration for half-maximal inhibition (IC50) of 3300 nM.
In turn, `NCc1cc2c(cc1F)OCC21CCN(C(=O)c2ccc(C#Cc3ccccc3)o2)CC1` [Cpd 311, 1-(5-phenylethynyl-furan-2-yl)carbonyl-5′-aminomethyl-6′-fluoro-spiro[piperidine-4,3′-(2H)-benzo[b]furan]] returned an IC50 of 39 nM.
Turning to `N#Cc1cccc(C(=O)N2CCC3(CC2)COc2ccc(CN)cc23)c1` [Cpd 66, 1-(3-cyano-phenyl)carbonyl-5′-aminomethyl-spiro[piperidine-4,3′-(2H)-benzo[b]furan]], the IC50 amounted to 1900 nM.
For `COc1ccc(CC(=O)N2CCC3(CC2)COc2ccc(CN)cc23)cc1` [Cpd 94, 1-(4-methoxy-benzyl)carbonyl-5′-aminomethyl-spiro[piperidine-4,3′-(2H)-benzo[b]furan]], the IC50 worked out at 240 nM.
`CSc1sc(C(=O)N2CCC3(CC2)COc2ccc(CN)cc23)c(-c2ccc(Cl)cc2)c1C#N` [Cpd 202, 1-[3-(4-chloro-phenyl)-4-cyano-5-methylthio-thien-2-yl]carbonyl-5′-aminomethyl-spiro[piperidine-4,3′-(2H)-benzo[b]furan]]: the IC50 was found to be 51 nM.
Regarding `NCc1ccc2c(c1)C1(CCN(C(=O)c3ccc(-c4ccc(Cl)c(Cl)c4)o3)CC1)CO2` [Cpd 138, 1-[5-(3,4-dichloro-phenyl)-furan-2-yl]carbonyl-5′-aminomethyl-spiro[piperidine-4,3′-(2H)-benzo[b]furan]], the IC50 is 140 nM.
On to `CS(=O)(=O)N1CC2(CCN(C(=O)c3ccc(C#Cc4ccccc4)o3)CC2)c2cc(CN)ccc21` [Cpd 340, 1-(5-phenylethynyl-furan-2-yl)carbonyl-1′-methylsulfonyl-5′-aminomethyl-spiro[piperidine-4,3′-(2H)-indole]], for which inhibition was half-maximal at 1.8 nM (IC50).
In the case of `COc1cccc2c(C(=O)N3CCC4(CC3)COc3ccc(CN)cc34)sc(SC)c12` [Cpd 235, 1-(3-methylthio-4-methoxy-benzo[c]thien-1-yl)carbonyl-5′-aminomethyl-spiro[piperidine-4,3′-(2H)-benzo[b]furan]] it was 9.2 nM; in that of `NCc1ccc2c(c1)C1(CCN(C(=O)c3ccc(Cn4cnc5ccccc54)cc3)CC1)CO2` [Cpd 10, 1-(4-benzoimidazol-1-ylmethyl-phenyl)carbonyl-5′-aminomethyl-spiro[piperidine-4,3′-(2H)-benzo[b]furan]], 3000 nM; in that of `NCc1ccc2c(c1)C1(CCN(C(=O)c3ccc(-n4cc(-c5nc6ccccc6o5)cn4)cc3)CC1)CO2` [Cpd 17, 1-{4-[(4-benzoxazol-2-yl)-pyrazol-1-yl]-phenyl}carbonyl-5′-aminomethyl-spiro[piperidine-4,3′-(2H)-benzo[b]furan]], 290 nM.
Take `Cc1cc(C(=O)N2CCC3(CC2)COc2ccc(CN)cc23)sc1C(O)O` [Cpd 256, 1-(5-dihydroxymethyl-4-methyl-thien-2-yl)carbonyl-5′-aminomethyl-spiro[piperidine-4,3′-(2H)-benzo[b]furan]]: the IC50 worked out at 820 nM.
In turn, `NCc1ccc2c(c1)C1(CCN(C(=O)c3cc4ccccc4n3S(=O)(=O)c3ccccc3)CC1)CO2` [Cpd 283, 1-(1-phenylsulfonyl-1H-indol-2-yl)carbonyl-5′-aminomethyl-spiro[piperidine-4,3′-(2H)-benzo[b]furan]] yielded an IC50 of 910 nM.
